{
  "source": "patent US11066651B2",
  "about": "“Methods and compositions relating to viral latency” (University of Utah Research Foundation, priority 2009, dated 2021)",
  "key": {"[1]": {"system": "Latently infected cells (DHIV-infected NP cells)", "test": "HIV-1 reactivation in latently infected NP cells by signaling agonists (intracellular p24 Gag, flow cytometry)", "type": "cell-based, human", "conditions": "agonist 3 days at the concentration of b193; for ability of agonist to reactivate viral gene expression (in words): p24 Gag+ cells", "method": "(§1) To assess intracellular p24-gag expression, 5×10^5 cells were fixed and permeabilized with Citofix/Cytoperm during 30 min at 4° C. (BD Biosciences, San Diego, Calif.). Cells were washed with Perm/Wash Buffer (BD Biosciences) and stained with 1:40 dilution of anti-p24 antibody (AG3.0) in 100 μl of Perm/Wash Buffer during 30 min at 4° C. Cells were washed with Perm/Wash Buffer and incubated with 1:100 Alexa Fluor 488 goat anti-mouse IgG (H+L) in 100 μl of Perm/Wash Buffer during 30 min at 4° C. Cells were washed with Perm/Wash Buffer and samples were analyzed by flow cytometry. Forward versus side scatter plots were used to define the live population. In all the experiments, HIV p24-gag staining regions were set with uninfected cells treated in parallel.\nTo complement the inhibitor studies, additional experimentation was conducted using agonists for the above signaling pathways. Latently infected cells were either left untreated or incubated with agonist. As a positive control, cells were treated with αCD3/CD28. The ability of the agonist to promote viral reactivation was then evaluated by detection of intracellular p24^Gag as shown above (FIG. 4). Phytohemagglutinin (PHA), a lectin that binds non-specifically to carbohydrate moieties on surface glycoproteins and acts as a potent polyclonal mitogen for T cells, was the first to be tested.\n(§2) The concentration of each inhibitor or activator was as follows: 5 μM H-89, 50 μM PD98059, 250 nM Wortmannin, 15 nM bisindolylmaleimide II (BIM), 5 μM Rottlerin, 10 μM PP2, 50 μg/ml I kappa B Kinase Inhibitor Peptide, Cell-Permeable (IKK inh.) and 50 μM Forskolin (Calbiochem, San Diego, Calif.); 50 μM SB202190 and 125 ng/ml Leflunomide (Alexis Biochemicals, San Diego, Calif.); 10 nM Gö6976 and 1 μM Prostratin (LC Laboratories, Woburn, Mass.); 25 ng/ml TNF-α (Prepotech Inc.); 10 ng/ml phorbol 12-myristate 13-acetate, 1 μM Ionomycin, 5 μg/ml L-PHA and 1 mM Valproic Acid (Sigma, Saint Louis, Mo.); 500 ng/ml Cyclosporin A (Fluka/Sigma); 25 μM SP600125 (A.G. Scientific Int., San Diego, Calif.); and 20 μM Integrase Inhibitor (118-D-24)."}, "DHIV-infected NP cells": {"system": "DHIV-infected NP cells", "test": "HIV-1 reactivation by αCD3/CD28 in latently infected NP cells in the presence of signaling inhibitors (intracellular p24 Gag, flow cytometry)", "type": "cell-based, human", "conditions": "αCD3/CD28 restimulation 3 days; for inhibition of reactivation: inhibitor preincubated 2 hr", "method": "as §1\n2.5×10^5 cells were reactivated with beads coated with anti-CD3 and anti-CD28 during 72 hours in the presence of IL-2 (1 bead per cell).\nFor inhibition studies, cells were preincubated with the indicated inhibitor for 2 hr before stimulation (See Supplementary Methods on line for the concentration of each inhibitor or activator).\nTo begin to dissect potential signaling pathways leading to virus reactivation, a panel of known signaling inhibitors was tested. […] As a control, and to confirm expectations that the observed latent infections represent post-integration events, the integrase inhibitor, 118-D-24, was tested (FIG. 3A).\nas §2"}, "latently infected cells": {"system": "latently infected cells", "test": "IL-7+IL-2 induced viral reactivation in the presence of inhibitors", "type": "cell-based, human", "conditions": "IL-7+IL-2 stimulation", "text": "Understanding the intracellular mediators of IL-7/IL-2 stimulation provides additional targets toward latent virus purging. Some of these mediators can be enzymes, such as kinases and phosphatases, which may be ameneable to agonistic or antagonistic drugs. It is also important to know the IL-7/IL-2 signaling because, as noted herein, this pathway is the basis for homeostatic proliferation of memory cells, where an important proportion of proliferating cells are not inducing viral reactivation.\nIL-7 stimulation induces activation of p38MAPK (a noncanonical IL-7 dependent pathway). […] Therefore, p38α is also a mediator for reactivation via IL-7."}, "p38α MAPK": {"system": "p38α MAPK", "conditions": "cited from earlier work"}, "[2]": {"system": "Latently infected cells (DHIV-infected NP cells)", "test": "PHA-mediated HIV-1 reactivation in the presence of inhibitors (intracellular p24 Gag)", "type": "cell-based, human", "description": "To assess intracellular p24-gag expression, 5×10^5 cells were fixed and permeabilized with Citofix/Cytoperm during 30 min at 4° C. […] Cells were washed with Perm/Wash Buffer (BD Biosciences) and stained with 1:40 dilution of anti-p24 antibody (AG3.0) in 100 μl of Perm/Wash Buffer during 30 min at 4° C. Cells were washed with Perm/Wash Buffer and incubated with 1:100 Alexa Fluor 488 goat anti-mouse IgG (H+L) in 100 μl of Perm/Wash Buffer during 30 min at 4° C. Cells were washed with Perm/Wash Buffer and samples were analyzed by flow cytometry. Forward versus side scatter plots were used to define the live population. In all the experiments, HIV p24-gag staining regions were set with uninfected cells treated in parallel.\nFor inhibition studies, cells were preincubated with the indicated inhibitor for 2 hr before stimulation (See Supplementary Methods on line for the concentration of each inhibitor or activator). […]"}, "[3]": {"system": "Jurkat latently infected cells", "conditions": "Jurkat cell line; cited from earlier work"}, "[4]": {"system": "tumor cell lines harboring integrated, latent HIV-1", "conditions": "through the activation of NFκB; cited from earlier work"}, "[5]": {"conditions": "inhibitor at the concentration of b193"}},
  "note": "Entries after “also recorded” stand apart in the source; their conditions may differ.",
  "data": [
    {"compound": "Phytohemagglutinin [PHA]", "values": [
      {"measurement": "ability of agonist to reactivate viral gene expression (in words)", "setting": "[1]", "value": "induced reactivation almost as efficiently as αCD3/CD28 treatment"},
      {"measurement": "reactivation efficiency", "setting": "[1]; relative to αCD3/CD28, formula", "value": 79, "unit": "%"}
    ]},
    {"compound": "Cn1c2ccccc2c2c3c(c4c5ccccc5n(CCC#N)c4c21)CNC3=O", "note": "[Gö6976]", "values": [
      {"measurement": "effect of inhibitor on viral reactivation (in words)", "setting": "DHIV-infected NP cells; [5]", "value": "None of these three compounds had a negative effect on viral reactivation"}
    ]},
    {"compound": "Oc1ccc(-c2nc(-c3ccncc3)c(-c3ccc(F)cc3)[nH]2)cc1", "note": "[SB202190]", "values": [
      {"measurement": "inhibition of reactivation", "setting": "DHIV-infected NP cells", "value": 66, "unit": "%"}
    ]},
    {"compound": "COc1cccc(-c2cc(=O)c3ccccc3o2)c1N", "note": "[PD98059]", "values": [
      {"measurement": "effect of inhibitor on viral reactivation (in words)", "setting": "DHIV-infected NP cells; [5]", "value": "Neither SP600125 nor PD98059 inhibited viral reactivation"}
    ]},
    {"compound": "CN1CCCC1CCn1cc(C2=C(c3c[nH]c4ccccc34)C(=O)NC2=O)c2ccccc21", "note": "(stereo not shown) [BIM, bisindolylmaleimide II]", "values": [
      {"measurement": "effect of inhibitor on viral reactivation (in words)", "setting": "DHIV-infected NP cells; [5]", "value": "None of these three compounds had a negative effect on viral reactivation"}
    ]},
    {"compound": "CC(=O)c1c(O)c(C)c(O)c(Cc2c(O)c3c(c(C(=O)/C=C/c4ccccc4)c2O)OC(C)(C)C=C3)c1O", "note": "[Rottlerin]", "values": [
      {"measurement": "effect of inhibitor on viral reactivation (in words)", "setting": "DHIV-infected NP cells; [5]", "value": "None of these three compounds had a negative effect on viral reactivation"}
    ]},
    {"compound": "C[S+]([O-])c1ccc(-c2nc(-c3ccncc3)c(-c3ccc(F)cc3)[nH]2)cc1", "note": "(stereo not shown) [SB203580]", "values": [
      {"measurement": "inhibition of reactivation", "setting": "DHIV-infected NP cells", "value": "about 66%"},
      {"measurement": "effect of inhibitor on reactivation by IL-7+IL-2 (in words)", "setting": "latently infected cells", "value": "can block reactivation"},
      {"measurement": "effect on IL-7 induced proliferative response (in words)", "setting": "p38α MAPK", "value": "abrogated the proliferative response"}
    ]},
    {"compound": "CC(=O)O[C@@]12C[C@@H](C)[C@@]3(O)[C@@H](C=C(CO)C[C@]4(O)C(=O)C(C)=C[C@@H]34)[C@@H]1C2(C)C", "note": "[prostratin]", "values": [
      {"measurement": "ability of agonist to reactivate viral gene expression (in words)", "setting": "[1]", "value": "Neither compound was able to reactivate viral gene expression; also recorded: failed to induce any degree of reactivation"}
    ]},
    {"compound": "CC(C)(C)n1nc(-c2ccc(Cl)cc2)c2c(N)ncnc21", "note": "[PP2]", "values": [
      {"measurement": "inhibition of reactivation", "setting": "DHIV-infected NP cells", "value": "about 96%"},
      {"measurement": "viral reactivation with PHA in the presence of inhibitor (reactivation efficiency)", "setting": "[2]; PHA stimulation co-incubated with inhibitor, relative to αCD3/CD28", "value": 3, "unit": "%"},
      {"measurement": "effect of inhibitor on reactivation by PHA (in words)", "setting": "[2]; PHA stimulation plus inhibitor", "value": "completely blocked reactivation by PHA"}
    ]},
    {"compound": "C[C@H](CCC(=O)O)C[C@H](C)C[C@H](C)C(=O)/C=C(\\O)[C@H](C)C[C@H](C)C/C=C/[C@@H](C)[C@@H](O)[C@@H](C)[C@@H](O)C[C@@H]1CC[C@@](C)([C@H]2CC[C@@](C)([C@@H](C)O)O2)O1", "note": "[lonomycin, Ionomycin]", "values": [
      {"measurement": "ability of agonist to reactivate viral gene expression (in words)", "setting": "[1]", "value": "had no effect on viral reactivation; also recorded: produced no detectable reactivation"}
    ]},
    {"compound": "Cc1oncc1C(=O)Nc1ccc(C(F)(F)F)cc1", "note": "[Leflunomide]", "values": [
      {"measurement": "effect of inhibitor on viral reactivation (in words)", "setting": "DHIV-infected NP cells; [5]", "value": "failed to block viral reactivation"},
      {"measurement": "effect of inhibitor on viral reactivation (in words)", "setting": "DHIV-infected NP cells; inhibitor at the concentration of b193, listed as lefluonomide", "value": "does not block reactivation in memory cells"}
    ]},
    {"compound": "TNF-α", "values": [
      {"measurement": "ability of agonist to reactivate viral gene expression (in words)", "setting": "[1]", "value": "failed to induce any degree of viral gene expression; also recorded: failed to induce any degree of reactivation; also recorded: failed to induce any detectable reactivation"},
      {"measurement": "reactivation of latent viruses (in words)", "setting": "[3]", "value": "Reactivation of these latent viruses was accomplished"},
      {"measurement": "induction of viral gene expression (in words)", "setting": "[4]", "value": "can induce viral gene expression"}
    ]},
    {"compound": "CCCC(CCC)C(=O)O", "note": "[VA, valproic acid]", "values": [
      {"measurement": "ability of agonist to reactivate viral gene expression (in words)", "setting": "[1]", "value": "failed to reactivate viral gene expression"},
      {"measurement": "ability of agonist to reactivate viral gene expression (in words)", "setting": "[1]; listed as Valproic acid", "value": "incapable of inducing viral reactivation"}
    ]},
    {"compound": "CCCCCCCCCCCCCC(=O)O[C@@H]1[C@@H](C)[C@@]2(O)[C@@H](C=C(CO)C[C@]3(O)C(=O)C(C)=C[C@@H]23)[C@@H]2C(C)(C)[C@]12OC(C)=O", "note": "[PMA, phorbol 12-myristate 13-acetate]", "values": [
      {"measurement": "ability of agonist to reactivate viral gene expression (in words)", "setting": "[1]", "value": "Neither compound was able to reactivate viral gene expression; also recorded: failed to induce any degree of reactivation; also recorded: failed to induce any detectable reactivation"},
      {"measurement": "reactivation of latent viruses (in words)", "setting": "[3]", "value": "Reactivation of these latent viruses was accomplished"}
    ]},
    {"compound": "O=S(=O)(NCCNC/C=C/c1ccc(Br)cc1)c1cccc2cnccc12", "note": "[H-89]", "values": [
      {"measurement": "effect of inhibitor on viral reactivation (in words)", "setting": "DHIV-infected NP cells; [5]", "value": "did not have any effect on viral reactivation"}
    ]}
  ]
}
